Test results from PubChem BioAssay (NCI).
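The concentration for 50% growth inhibition is given as GI50. TGI is the concentration that stops growth completely.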

Assays:
Assay in all cases: inhibition of tumour cell growth, NCI panel, 384-well format
786-0 renal = test system: 786-0 renal
A498 renal = test system: A498 renal
A549 NSCLC = test system: A549 NSCLC
ACHN renal = test system: ACHN renal
BT-549 breast = test system: BT-549 breast
CAKI-1 renal = test system: CAKI-1 renal
CCRF-CEM leukemia = test system: CCRF-CEM leukemia
COLO 205 colon = test system: COLO 205 colon
DU-145 prostate = test system: DU-145 prostate
EKVX NSCLC = test system: EKVX NSCLC
HCC-2998 colon = test system: HCC-2998 colon
HCT-116 colon = test system: HCT-116 colon
HCT-15 colon = test system: HCT-15 colon
HL-60(TB) leukemia = test system: HL-60(TB) leukemia
HOP-62 NSCLC = test system: HOP-62 NSCLC
HOP-92 NSCLC = test system: HOP-92 NSCLC
HT29 colon = test system: HT29 colon
IGROV1 ovarian = test system: IGROV1 ovarian
K-562 leukemia = test system: K-562 leukemia
KM12 colon = test system: KM12 colon
LOX IMVI melanoma = test system: LOX IMVI melanoma
M14 melanoma = test system: M14 melanoma
MALME-3M melanoma = test system: MALME-3M melanoma
MCF7 breast = test system: MCF7 breast
MDA-MB-231 breast = test system: MDA-MB-231 breast
MDA-MB-435 melanoma = test system: MDA-MB-435 melanoma
MDA-MB-468 breast = test system: MDA-MB-468 breast
MOLT-4 leukemia = test system: MOLT-4 leukemia
NCI-H226 lung = test system: NCI-H226 lung
NCI-H23 lung = test system: NCI-H23 lung
NCI-H322M lung = test system: NCI-H322M lung
NCI-H460 NSCLC = test system: NCI-H460 NSCLC
NCI-H522 lung = test system: NCI-H522 lung
NCI/ADR-RES ovarian = test system: NCI/ADR-RES ovarian
OVCAR-3 ovarian = test system: OVCAR-3 ovarian
OVCAR-4 ovarian = test system: OVCAR-4 ovarian
OVCAR-5 ovarian = test system: OVCAR-5 ovarian
OVCAR-8 ovarian = test system: OVCAR-8 ovarian
PC-3 prostate = test system: PC-3 prostate
RPMI-8226 leukemia = test system: RPMI-8226 leukemia
RXF 393 renal = test system: RXF 393 renal
SF-268 CNS = test system: SF-268 CNS
SF-295 CNS = test system: SF-295 CNS
SF-539 CNS = test system: SF-539 CNS
SK-MEL-2 melanoma = test system: SK-MEL-2 melanoma
SK-MEL-28 melanoma = test system: SK-MEL-28 melanoma
SK-MEL-5 melanoma = test system: SK-MEL-5 melanoma
SK-OV-3 ovarian = test system: SK-OV-3 ovarian
SN12C renal = test system: SN12C renal
SNB-19 CNS = test system: SNB-19 CNS
SNB-75 CNS = test system: SNB-75 CNS
SR leukemia = test system: SR leukemia
SW-620 colon = test system: SW-620 colon
T-47D breast = test system: T-47D breast
TK-10 renal = test system: TK-10 renal
U251 glioblastoma = test system: U251 glioblastoma
UACC-257 melanoma = test system: UACC-257 melanoma
UACC-62 melanoma = test system: UACC-62 melanoma
UO-31 renal = test system: UO-31 renal
HS 578T breast = test system: HS 578T breast

## COc1ccc(Cl)c(Nc2nc3ccccc3nc2NS(=O)(=O)c2cccc(NC(=O)C(C)(C)N)c2)c1
786-0 renal
  GI50: 9.77 µM
  TGI: 22.6 µM
A498 renal
  GI50: 6.64 µM
  TGI: 19.5 µM
A549 NSCLC
  GI50: 10.5 µM
  TGI: 22.4 µM
ACHN renal
  GI50: 10.2 µM
  TGI: 23.3 µM
BT-549 breast
  GI50: 3.17 µM
  TGI: 14.1 µM
CAKI-1 renal
  GI50: 7.59 µM
  TGI: 21.7 µM
CCRF-CEM leukemia
  GI50: 12 µM
  TGI: 24.4 µM
COLO 205 colon
  GI50: 11.3 µM
  TGI: 23.5 µM
DU-145 prostate
  GI50: 11.4 µM
  TGI: 24.4 µM
EKVX NSCLC
  GI50: 4.81 µM
  TGI: 19.5 µM
HCC-2998 colon
  GI50: 8.3 µM
  TGI: 22.6 µM
HCT-116 colon
  GI50: 14.7 µM
  TGI: 28 µM
HCT-15 colon
  GI50: 12.3 µM
  TGI: 25 µM
HL-60(TB) leukemia
  GI50: 2.69 µM
  TGI: 10.7 µM
HOP-62 NSCLC
  GI50: 13.6 µM
  TGI: 26.6 µM
HOP-92 NSCLC
  GI50: 0.977 µM
  TGI: 5.87 µM
HT29 colon
  GI50: 10.2 µM
  TGI: 21.9 µM
IGROV1 ovarian
  GI50: 1.38 µM
  TGI: 3.79 µM
K-562 leukemia
  GI50: 13.6 µM
  TGI: 26.6 µM
KM12 colon
  GI50: 13.7 µM
  TGI: 26.7 µM
LOX IMVI melanoma
  GI50: 12.8 µM
  TGI: 25.4 µM
M14 melanoma
  GI50: 12.5 µM
  TGI: 25.1 µM
MALME-3M melanoma
  GI50: 9.58 µM
  TGI: 21.6 µM
MCF7 breast
  GI50: 2.76 µM
  TGI: 14.5 µM
MDA-MB-231 breast
  GI50: 14.3 µM
  TGI: 27.5 µM
MDA-MB-435 melanoma
  GI50: 12.5 µM
  TGI: 25.1 µM
MDA-MB-468 breast
  GI50: 1.84 µM
  TGI: 10.1 µM
MOLT-4 leukemia
  GI50: 2.37 µM
  TGI: 7.66 µM
NCI-H226 lung
  GI50: 10.9 µM
  TGI: 22.9 µM
NCI-H23 lung
  GI50: 4.73 µM
  TGI: 20.1 µM
NCI-H322M lung
  GI50: 10.2 µM
  TGI: 23.4 µM
NCI-H460 NSCLC
  GI50: 5.5 µM
  TGI: 18.5 µM
NCI-H522 lung
  GI50: 9.12 µM
  TGI: 21.6 µM
NCI/ADR-RES ovarian
  GI50: 11 µM
  TGI: 23.2 µM
OVCAR-3 ovarian
  GI50: 3.11 µM
  TGI: 15.5 µM
OVCAR-4 ovarian
  GI50: 10.2 µM
  TGI: 24.4 µM
OVCAR-5 ovarian
  GI50: 9.79 µM
  TGI: 22.3 µM
OVCAR-8 ovarian
  GI50: 12.2 µM
  TGI: 24.9 µM
PC-3 prostate
  GI50: 4.02 µM
  TGI: 16.3 µM
RPMI-8226 leukemia
  GI50: 3.2 µM
  TGI: 11.4 µM
RXF 393 renal
  GI50: 2.38 µM
  TGI: 8.35 µM
SF-268 CNS
  GI50: 10.9 µM
  TGI: 22.9 µM
SF-295 CNS
  GI50: 5.29 µM
  TGI: 17.9 µM
SF-539 CNS
  GI50: 8.54 µM
  TGI: 21.1 µM
SK-MEL-2 melanoma
  GI50: 11.7 µM
  TGI: 24.6 µM
SK-MEL-28 melanoma
  GI50: 3.91 µM
  TGI: 16.7 µM
SK-MEL-5 melanoma
  GI50: 12.8 µM
  TGI: 25.5 µM
SK-OV-3 ovarian
  GI50: 5.4 µM
  TGI: 19.3 µM
SN12C renal
  GI50: 8.86 µM
  TGI: 21.3 µM
SNB-19 CNS
  GI50: 12.2 µM
  TGI: 24.8 µM
SNB-75 CNS
  GI50: 2.43 µM
  TGI: 10.1 µM
SR leukemia
  GI50: 8.2 µM
  TGI: 21.6 µM
SW-620 colon
  GI50: 10.2 µM
  TGI: 22.9 µM
T-47D breast
  GI50: 1.57 µM
  TGI: 7.84 µM
TK-10 renal
  GI50: 5.77 µM
  TGI: 19.5 µM
U251 glioblastoma
  GI50: 11.8 µM
  TGI: 24.3 µM
UACC-257 melanoma
  GI50: 11.6 µM
  TGI: 24.2 µM
UACC-62 melanoma
  GI50: 6.72 µM
  TGI: 19.6 µM
UO-31 renal
  GI50: 2.73 µM
  TGI: 13.3 µM

## O=c1c(O)c(-c2ccc(O)c(O)c2)oc2cc(O)cc(O)c12
786-0 renal
  GI50: 36.5 µM
  TGI: > 100 µM
A498 renal
  GI50: 14.2 µM
  TGI: 73.2 µM
A549 NSCLC
  GI50: 28.2 µM
  TGI: > 100 µM
ACHN renal
  GI50: 35.1 µM
  TGI: 88.2 µM
BT-549 breast
  GI50: 17 µM
  TGI: 61.7 µM
CAKI-1 renal
  GI50: 44.8 µM
  TGI: > 100 µM
CCRF-CEM leukemia
  GI50: 13.7 µM
  TGI: 26.7 µM
COLO 205 colon
  GI50: > 100 µM
  TGI: > 100 µM
DU-145 prostate
  GI50: 24.4 µM
  TGI: 94 µM
EKVX NSCLC
  GI50: 24.6 µM
  TGI: > 100 µM
HCC-2998 colon
  GI50: 29.4 µM
  TGI: 93.2 µM
HCT-15 colon
  GI50: 27 µM
  TGI: 97.4 µM
HL-60(TB) leukemia
  GI50: 12.4 µM
  TGI: 25.3 µM
HOP-62 NSCLC
  GI50: 11.1 µM
  TGI: 23.1 µM
HOP-92 NSCLC
  GI50: 20.8 µM
  TGI: 65.7 µM
HS 578T breast
  GI50: 6.06 µM
  TGI: 23.1 µM
HT29 colon
  GI50: 46.4 µM
  TGI: > 100 µM
IGROV1 ovarian
  GI50: 20.5 µM
  TGI: 55.7 µM
KM12 colon
  GI50: 22.9 µM
  TGI: 96.5 µM
M14 melanoma
  GI50: 20.5 µM
  TGI: 47.1 µM
MALME-3M melanoma
  GI50: 20 µM
  TGI: 76.4 µM
MCF7 breast
  GI50: 18.9 µM
  TGI: 33.8 µM
MDA-MB-231 breast
  GI50: 10.9 µM
  TGI: 40.3 µM
MDA-MB-435 melanoma
  GI50: 17 µM
  TGI: 54.6 µM
MDA-MB-468 breast
  GI50: 2.54 µM
  TGI: 7.46 µM
MOLT-4 leukemia
  GI50: 13.6 µM
  TGI: 26.6 µM
NCI-H226 lung
  GI50: 24.1 µM
  TGI: 69 µM
NCI-H23 lung
  GI50: 13.2 µM
  TGI: 29.7 µM
NCI-H322M lung
  GI50: 26.1 µM
  TGI: 98.8 µM
NCI-H460 NSCLC
  GI50: 14.9 µM
  TGI: 31.7 µM
NCI-H522 lung
  GI50: 8.75 µM
  TGI: 43.1 µM
NCI/ADR-RES ovarian
  GI50: 20 µM
  TGI: 40.2 µM
OVCAR-3 ovarian
  GI50: 16.2 µM
  TGI: 42.3 µM
OVCAR-4 ovarian
  GI50: 19.1 µM
  TGI: 44.5 µM
OVCAR-5 ovarian
  GI50: 20.9 µM
  TGI: 62.5 µM
OVCAR-8 ovarian
  GI50: 20.9 µM
  TGI: 55.2 µM
PC-3 prostate
  GI50: 25.5 µM
  TGI: 74.5 µM
RPMI-8226 leukemia
  GI50: 15.3 µM
  TGI: 33.9 µM
RXF 393 renal
  GI50: 18 µM
  TGI: 56.2 µM
SF-268 CNS
  GI50: 17.3 µM
  TGI: 40.2 µM
SF-295 CNS
  GI50: 17.3 µM
  TGI: 33.2 µM
SF-539 CNS
  GI50: 14.5 µM
  TGI: 32.6 µM
SK-MEL-2 melanoma
  GI50: 19.1 µM
  TGI: 39.6 µM
SK-MEL-28 melanoma
  GI50: 33.2 µM
  TGI: 93.1 µM
SK-MEL-5 melanoma
  GI50: 16.8 µM
  TGI: 53.4 µM
SK-OV-3 ovarian
  GI50: 19.8 µM
  TGI: 51.7 µM
SN12C renal
  GI50: 28.8 µM
  TGI: 79.8 µM
SNB-19 CNS
  GI50: 24.9 µM
  TGI: 71.7 µM
SNB-75 CNS
  GI50: 14.3 µM
  TGI: 30.5 µM
SR leukemia
  GI50: 1.94 µM
  TGI: 3.53 µM
SW-620 colon
  GI50: 41.9 µM
  TGI: > 100 µM
T-47D breast
  GI50: 19.9 µM
  TGI: 36.8 µM
TK-10 renal
  GI50: 45.4 µM
  TGI: > 100 µM
U251 glioblastoma
  GI50: 12.8 µM
  TGI: 36 µM
UACC-257 melanoma
  GI50: 23.4 µM
  TGI: > 100 µM
UACC-62 melanoma
  GI50: 16.6 µM
  TGI: 33.5 µM
